Data published in PubChem BioAssay (NCI).
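How tested: cells in 96-well plates exposed to compound for 48 hours at five concentrations. The concentration for 50% growth inhibition is given as GI50. At the TGI there is no net growth.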

Assays:
Experiment in all cases: growth of human tumour cells (NCI), 48 h
HCC-2998 colon = tested on: HCC-2998 colon
MDA-MB-231 breast = tested on: MDA-MB-231 breast
OVCAR-5 ovarian = tested on: OVCAR-5 ovarian
UACC-62 melanoma = tested on: UACC-62 melanoma
NCI-H23 lung = tested on: NCI-H23 lung
HL-60(TB) leukemia = tested on: HL-60(TB) leukemia
786-0 renal = tested on: 786-0 renal
LOX IMVI melanoma = tested on: LOX IMVI melanoma
SK-MEL-28 melanoma = tested on: SK-MEL-28 melanoma
UO-31 renal = tested on: UO-31 renal

SMILES | GI50 (HCC-2998 colon) [µM] | TGI (HCC-2998 colon) [µM] | GI50 (MDA-MB-231 breast) [µM] | TGI (MDA-MB-231 breast) [µM] | GI50 (OVCAR-5 ovarian) [µM] | TGI (OVCAR-5 ovarian) [µM] | GI50 (UACC-62 melanoma) [µM] | TGI (UACC-62 melanoma) [µM] | GI50 (NCI-H23 lung) [µM] | TGI (NCI-H23 lung) [µM] | GI50 (HL-60(TB) leukemia) [µM] | TGI (HL-60(TB) leukemia) [µM] | GI50 (786-0 renal) [µM] | TGI (786-0 renal) [µM] | GI50 (LOX IMVI melanoma) [µM] | TGI (LOX IMVI melanoma) [µM] | GI50 (SK-MEL-28 melanoma) [µM] | TGI (SK-MEL-28 melanoma) [µM] | GI50 (UO-31 renal) [µM] | TGI (UO-31 renal) [µM]
N/C(=N\c1nc2ccccc2s1)NC(=O)Nc1cccc2ccccc12 | 0.741 | > 100 | 0.636 | 3.32 | 0.696 | > 100 | 0.354 | > 95 | 0.462 | > 28.4 | 0.283 | 0.968 | 0.603 | > 94.8 | 0.825 | > 100 | 12.9 | > 100 | 0.802 | > 100
COC(=O)[C@@H]1CCCN1C(=O)[C@H]1CCCN1C(=O)[C@@H](Cc1c[nH]c2ccccc12)NC(=S)Nc1cc(C(F)(F)F)cc(C(F)(F)F)c1 | 2.05 | 4.3 | 2.34 | 5.6 | 4.3 | 18.4 | 2.38 | 6.29 | 3.13 | 11.4 | 2.7 | 6.35 | 7.5 | 20.2 | 1.95 | 4.29 | 3.05 | 10.2 | 3.23 | 11.6
COc1ccc(-c2nc3sc4c(c3c(=O)[nH]2)CCCC4)c2ccccc12 |  | 79.1 |  | > 100 | 0.301 | 4.59 |  | 16.3 | 0.57 |  | 0.301 | 2.04 |  | 3.8 |  | > 100 | 0.468 |  | 0.59 | 
O=[N+]([O-])c1cccc(-c2cc(-c3cc(Br)ccc3O)[nH]n2)c1 | 2.96 | 12.1 | 2.49 | 9.87 | 3.81 | 14.9 | 2.63 | 11.7 | 2.06 | 6.11 | 1.15 | 3.45 | 1.7 | 4.08 | 2.73 | 8.62 | 2.88 | 10.5 | 2.34 | 9.38
O=[N+]([O-])c1ccc(N=Nc2c(O)[nH]c3ccccc23)cc1 |  | > 100 |  | > 58.9 |  | > 63.1 |  | > 100 |  | > 100 |  | > 77.8 |  | 61.7 |  | > 96.3 |  | > 100 |  | 39.3
O=C1OCC2=C1C(c1cccc(C(F)(F)F)c1)c1cc3c(cc1N2CCO)CCC3 (centres undefined) | 0.177 | 6.76 | 0.223 | 6.76 | 0.265 | 8.97 | 0.174 | 9.15 | 0.321 | 14.5 | 0.133 | 0.427 | 0.289 | 8.13 | 0.271 | 6.77 | 1.41 | 12.1 | 0.323 | 9.01
COc1ccc2c(c1)C(=O)c1c-2n(CCCN2CCOCC2)c(=O)c2cc([N+](=O)[O-])ccc12 | < 0.01 | 0.153 | 0.661 | 17.3 | < 0.01 | 0.889 | < 0.01 | 0.0291 | < 0.01 | < 0.01 | < 0.0193 | 4.03 | < 0.01 |  | < 0.01 | 0.0127 |  | 16.2 | < 0.01 | 0.0572
COc1ccc(-n2c(C)nc3c(c(C)nn3-c3ccccc3)c2=O)cc1 | 0.191 | > 100 | 0.311 | > 100 | 0.298 | > 100 | 0.0426 | > 100 | 0.218 | > 100 | 0.0353 | 0.22 | 0.0654 | > 100 | 0.065 | > 100 | 2.07 | > 100 | 0.261 | > 43.4
CC1(C)Cc2c(Br)c(Br)c(Br)c(OCC(O)CN3CCOCC3)c2O1 (centres undefined) | 14.1 | 28.8 | 10.1 | 22.5 | 14.8 | 28.8 | 13.8 | 27.5 | 13.5 | 27.6 | 3.72 | 17.9 | 13 | 28.6 | 13.6 | 27.9 | 15 | 31.9 | 12.8 | 27.4
Oc1ccc(CN(Cc2ccc(C(F)(F)F)cc2)Cc2ccc(O)c3ncccc23)c2cccnc12 | 0.0496 | > 100 | 0.0566 | > 100 | 0.0736 | > 100 | 0.0395 | 0.927 | 0.0245 | > 100 | 0.0239 |  | 0.0394 | 5.21 | 0.0381 | 15.1 | 0.341 | > 100 | 0.0279 | 2.19
CC(C)=CC1CC(C)C2(CCC3(C)CC4C(C(=O)CC4(C)O)/C(C=O)=C\CC32)O1 (centres undefined) |  | 0.328 |  | 0.237 |  | 0.33 |  | 0.368 |  | 0.264 |  | 0.0576 |  | 0.0438 |  | 0.182 |  | 0.277 |  | 0.0989
COc1ccc(-c2cc(-c3nnc(SCC(=O)Nc4ccc(C(C)=O)cc4)o3)c3ccccc3n2)cc1 | > 100 | > 100 | 19.4 | > 100 | > 100 | > 100 | 27.1 | > 100 | 25.4 | > 100 | > 100 | > 100 | 1.94 | 4.95 | 73.7 | > 100 | > 100 | > 100 | > 100 | > 100
COc1ccc(-c2ccccc2)cc1-c1c(Nc2cc(Cl)cc(Cl)c2O)c(=O)c1=O | 1.78 | > 50 | 1.2 | 3.17 | 1.77 | > 50 | 1.29 | > 50 | 1.38 | > 50 | 1.11 | 2.54 | 1.84 | > 50 | 1.72 | > 50 | 2.05 | > 50 | 1.25 | > 50
